According to the supplement of paper PMC10307832:

Key:
Assay in all cases: relative viability (nuclei count vs DMSO), 5 days (fraction); higher = more cells survive
[1] = compound: C/C(=N\NC(=S)N1CCC1)/C2=CC=CC=N2 + CC(C)C[C@H](NC(=O)[C@H](Cc1ccccc1)NC(=O)c1cnccn1)B(O)O [Bortezomib] (partner 0.002 µM)
Outline: (§1)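 Relative viability equals treated-well nuclei counts divided by vehicle-well nuclei counts. Counts came from 4× images of lung cancer cell lines grown in 1536-well plates for 5 days after pin-tool dosing on the day after seeding. Dosing used one drug alone or a fixed anchor-drug dose plus five library-drug doses (not always all listed) in √10 steps, and values are medians of duplicate plates.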

[2] = compound: C/C(=N\NC(=S)N1CCC1)/C2=CC=CC=N2 + CS(=O)(=O)N1CCN(Cc2cc3nc(-c4cccc5[nH]ncc45)nc(N4CCOCC4)c3s2)CC1 [Pictilisib] (partner 1 µM)
Outline: as §1

[3] = compound: C/C(=N\NC(=S)N1CCC1)/C2=CC=CC=N2 + CC(=O)c1c(C)c2cnc(Nc3ccc(N4CCNCC4)cn3)nc2n(C2CCCC2)c1=O [Palbociclib] (partner 0.5 µM)
Outline: as §1

[4] = compound: C/C(=N\NC(=S)N1CCC1)/C2=CC=CC=N2 + COc1cc2c(Oc3ccc(NC(=O)C4(C(=O)Nc5ccc(F)cc5)CC4)cc3F)ccnc2cc1OCCCN1CCOCC1 [Foretinib] (partner 0.25 µM)
Outline: as §1

| Cell Line | relative viability ([1]; first compound 0.05 µM) | relative viability ([1]; first compound 0.1581 µM) | relative viability ([1]; first compound 0.5 µM) | relative viability ([1]; first compound 1.581 µM) | relative viability ([1]; first compound 5 µM) | relative viability ([2]; first compound 0.05 µM) | relative viability ([2]; first compound 0.1581 µM) | relative viability ([2]; first compound 0.5 µM) | relative viability ([2]; first compound 1.581 µM) | relative viability ([2]; first compound 5 µM) | relative viability ([3]; first compound 0.05 µM) | relative viability ([3]; first compound 0.1581 µM) | relative viability ([3]; first compound 0.5 µM) | relative viability ([3]; first compound 1.581 µM) | relative viability ([3]; first compound 5 µM) | relative viability ([4]; first compound 0.05 µM) | relative viability ([4]; first compound 0.1581 µM) | relative viability ([4]; first compound 0.5 µM) | relative viability ([4]; first compound 1.581 µM) | relative viability ([4]; first compound 5 µM) |
| --- | --- | --- | --- | --- | --- | --- | --- | --- | --- | --- | --- | --- | --- | --- | --- | --- | --- | --- | --- | --- |
| LCLC-103H | 0.294 | 0.353 | 0.242 | 0.229 | 0.206 | 0.269 | 0.254 | 0.266 | 0.234 | 0.265 | 0.335 | 0.464 | 0.309 | 0.289 | 0.287 | 0.176 | 0.311 | 0.221 | 0.133 | 0.167 |
| LOU-NH91 | 0.435 | 0.443 | 0.501 | 0.37 | 0.387 | 0.367 | 0.428 | 0.439 | 0.374 | 0.356 | 0.486 | 0.526 | 0.496 | 0.388 | 0.389 | 0.519 | 0.447 | 0.507 | 0.469 | 0.375 |
| LU99A | 0.135 | 0.108 | 0.165 | 0.124 | 0.147 | 0.12 | 0.106 | 0.0914 | 0.146 | 0.122 | 0.14 | 0.312 | 0.129 | 0.127 | 0.121 | 0.276 | 0.189 | 0.181 | 0.186 | 0.189 |
| LXF-289 | 0.314 | 0.216 | 0.255 | 0.203 | 0.121 | 0.192 | 0.151 | 0.16 | 0.103 | 0.123 | 0.252 | 0.6 | 0.189 | 0.143 | 0.13 | 0.422 | 0.31 | 0.294 | 0.311 | 0.121 |
| NCI-H23 | 0.108 | 0.148 | 0.171 | 0.105 | 0.136 | 0.132 | 0.16 | 0.159 | 0.132 | 0.117 | 0.143 | 0.174 | 0.168 | 0.133 | 0.164 | 0.226 | 0.262 | 0.196 | 0.181 | 0.209 |
| NCI-H322M | 0.176 | 0.295 | 0.296 | 0.287 | 0.324 | 0.23 | 0.38 | 0.275 | 0.263 | 0.287 | 0.345 | 0.382 | 0.488 | 0.379 | 0.439 | 0.282 | 0.32 | 0.31 | 0.295 | 0.336 |
| NCI-H441 | 0.162 | 0.153 | 0.171 | 0.146 | 0.127 | 0.127 | 0.101 | 0.115 | 0.108 | 0.128 | 0.13 | 0.112 | 0.124 | 0.0967 | 0.105 | 0.314 | 0.236 | 0.238 | 0.174 | 0.167 |
| NCI-H460 | 0.0169 | 0.0164 | 0.0256 | 0.0129 | 0.0105 | 0.108 | 0.12 | 0.0972 | 0.13 | 0.0516 | 0.018 | 0.0146 | 0.0188 | 0.0169 | 0.0139 | 0.1 | 0.06 | 0.0602 | 0.0533 | 0.0171 |
| NCI-H520 | 0.137 | 0.167 | 0.126 | 0.102 | 0.166 | 0.176 | 0.186 | 0.18 | 0.16 | 0.208 | 0.119 | 0.139 | 0.121 | 0.114 | 0.151 | 0.153 | 0.162 | 0.159 | 0.17 | 0.184 |
| NCI-H647 | 0.165 | 0.105 | 0.0582 | 0.072 | 0.0851 | 0.0857 | 0.0882 | 0.104 | 0.0844 | 0.15 | 0.0551 | 0.0636 | 0.0877 | 0.0726 | 0.0666 | 0.128 | 0.0812 | 0.172 | 0.132 | 0.105 |
| NCI-H650 | 0.181 | 0.238 | 0.199 | 0.134 | 0.196 | 0.234 | 0.235 | 0.25 | 0.201 | 0.202 | 0.143 | 0.197 | 0.146 | 0.144 | 0.128 | 0.222 | 0.238 | 0.234 | 0.242 | 0.194 |
| NCI-H661 | 0.213 | 0.2 | 0.185 | 0.217 | 0.185 | 0.222 | 0.239 | 0.232 | 0.237 | 0.21 | 0.284 | 0.252 | 0.251 | 0.231 | 0.223 | 0.294 | 0.307 | 0.244 | 0.264 | 0.24 |
| NCI-H727 | 0.171 | 0.214 | 0.156 | 0.174 | 0.184 | 0.236 | 0.195 | 0.154 | 0.15 | 0.139 | 0.346 | 0.393 | 0.363 | 0.314 | 0.439 | 0.225 | 0.231 | 0.227 | 0.227 | 0.22 |
| NCI-H838 | 0.165 | 0.181 | 0.172 | 0.134 | 0.145 | 0.172 | 0.207 | 0.167 | 0.102 | 0.157 | 0.161 | 0.165 | 0.158 | 0.129 | 0.13 | 0.259 | 0.255 | 0.216 | 0.217 | 0.18 |
| NCI-H1355 | 0.2 | 0.205 | 0.21 | 0.212 | 0.195 | 0.198 | 0.165 | 0.178 | 0.172 | 0.148 | 0.171 | 0.167 | 0.165 | 0.148 | 0.154 | 0.282 | 0.378 | 0.22 | 0.197 | 0.162 |
| NCI-H1437 | 0.121 | 0.137 | 0.0867 | 0.0717 | 0.0851 | 0.0885 | 0.101 | 0.0858 | 0.0683 | 0.0721 | 0.183 | 0.175 | 0.163 | 0.129 | 0.111 | 0.242 | 0.261 | 0.229 | 0.192 | 0.162 |
